In US20020037931A1, “Substituted nitrated catechols, their use in the treatment of some central and peripheral nervous system disorders and pharmaceutical compositions containing them” (priority 2000, published 2002):

How the values were obtained:
[1] = test system: COMT; assay: Ex vivo liver COMT activity after administration by gastric tube; format: in vivo; conditions: rat liver homogenate
[2] = target: T1, COMT (Homo sapiens, UniProt P21964); assay: COMT activity in intact SK-N-SH cell monolayers; format: cell-based; conditions: SK-N-SH cells; test compound 100 nM; means±SEM, n=4-8
T1 construct: COMT activity was evaluated in cell monolayers by the ability to methylate adrenaline; host or cells: SK-N-SH cells
T1 sequence (P21964 1-271): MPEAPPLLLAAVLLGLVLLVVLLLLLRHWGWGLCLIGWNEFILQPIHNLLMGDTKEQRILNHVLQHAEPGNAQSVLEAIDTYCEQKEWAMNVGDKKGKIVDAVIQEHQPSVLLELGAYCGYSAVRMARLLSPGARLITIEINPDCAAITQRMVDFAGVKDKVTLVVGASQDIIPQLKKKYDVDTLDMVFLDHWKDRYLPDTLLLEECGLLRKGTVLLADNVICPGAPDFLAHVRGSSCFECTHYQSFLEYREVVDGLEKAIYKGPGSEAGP

[3] = test system: COMT; assay: COMT activity (methylation of adrenaline to metanephrine) in rat liver homogenates; format: biochemical; conditions: rat liver homogenate; test compound 3 μM; means±SEM, n=4-8
[4] = test system: COMT; assay: COMT activity (methylation of adrenaline to metanephrine) in rat brain homogenates; format: biochemical; conditions: rat brain homogenate; test compound 100 nM; means±SEM, n=4-8
[5] = test system: COMT; assay: Ex vivo brain COMT activity after administration by gastric tube; format: in vivo, rat; conditions: for COMT activity (% of control), Brain: rat brain homogenate; for inhibitory profile brain COMT versus liver COMT (in words) / inhibition of brain COMT (in words): after oral administration; for inhibitory profile brain COMT versus liver COMT (in words) / access to the brain / activity in the periphery (in words) / inhibition of brain COMT (in words): rat; for inhibitory profile brain COMT versus liver COMT (in words): brain compared with liver; for access to the brain / activity in the periphery (in words): conclusion from ex vivo COMT inhibition
[6] = 0.5 h after administration by gastric tube
[7] = 1 h after administration by gastric tube
[8] = 3 h after administration by gastric tube
[9] = 6 h after administration by gastric tube
[10] = 9 h after administration by gastric tube

SMILES | COMT activity (% of control), Liver [1, 6] | COMT activity (% of control), Liver [1, 7] | COMT activity (% of control), Liver [1, 8] | COMT activity (% of control), Liver [1, 9] | COMT activity (% of control), Liver [1, 10] | COMT activity, SK-N-SH (% of control) [2] | COMT activity, Liver (% of control) [3] | COMT activity, Brain (% of control) [4] | COMT activity (% of control), Brain [5, 6] | COMT activity (% of control), Brain [5, 7] | COMT activity (% of control), Brain [5, 8] | COMT activity (% of control), Brain [5, 9] | COMT activity (% of control), Brain [5, 10] | inhibitory profile brain COMT versus liver COMT (in words) [5] | access to the brain / activity in the periphery (in words) [5] | inhibition of brain COMT (in words) [5]
O=C(c1ccccc1)c1ccc(O)c(O)c1[N+](=O)[O-] [Compound 5, (3,4-Dihydroxy-2-nitro-phenyl)-phenyl-methanone] | 2.1 ± 0.5 % of control | 26.5 ± 1.3 % of control | 52.1 ± 2.6 % of control | 79.0 ± 14.8 % of control | 108.9 % of control | 2 ± 0 % of control | 0.3 ± 0.1 % of control | 6 ± 1 % of control | 12.2 ± 0.3 % of control | 25.5 ± 1.8 % of control | 52.2 ± 2.3 % of control | 92.5 ± 7.9 % of control | 102.3 % of control | much more potent as a peripheral COMT inhibitor than in brain | limited access to the brain | –
CCCC(=O)Oc1ccc(C(=O)c2ccccc2)c([N+](=O)[O-])c1OC(=O)CCC [Compound 20, Butyric Acid, 3-Benzoyl-6-butyryloxy-2-nitro-phenyl Ester] | 57.9 ± 4.7 % of control | 64.4 ± 5.0 % of control | 66.5 ± 7.8 % of control | 94.5 ± 0.3 % of control | 110.1 % of control | 0 ± 0 % of control | 0.6 ± 0.0 % of control | 3 ± 0 % of control | 25.8 ± 4.3 % of control | 31.4 ± 3.0 % of control | 49.4 ± 5.3 % of control | 81.3 ± 3.7 % of control | 72.8 % of control | much more potent upon brain COMT than liver COMT | enhanced access to the brain and limited activity in the periphery | potent inhibitors of brain COMT
O=C(Cc1ccccc1)c1ccc(O)c(O)c1[N+](=O)[O-] [Compound 24, 1-(3,4-Dihydroxy-2-nitro-phenyl)-2-phenyl ethanone] | 6.2 ± 0.8 % of control | 8.4 ± 1.6 % of control | 61.9 ± 10.8 % of control | 91.6 ± 8.8 % of control | 125.9 % of control | 24 ± 1 % of control | 0.7 ± 0.0 % of control | 7 ± 1 % of control | 18.7 ± 1.6 % of control | 18.7 ± 0.6 % of control | 37.0 ± 5.9 % of control | 64.8 ± 3.7 % of control | 98.4 % of control | – | limited access to the brain | potent inhibitors of brain COMT
O=C(C=Cc1ccccc1)c1ccc(O)c(O)c1[N+](=O)[O-] [Compound 41, 1-(3,4-dihydroxy-2-nitro-phenyl)-3-phenyl-propenone] | – | – | – | – | – | 5 ± 0 % of control | 1.1 ± 0.2 % of control | 9 ± 1 % of control | – | – | – | – | – | – | – | –
O=C(CN1CCOCC1)c1ccc(O)c(O)c1[N+](=O)[O-] [Compound 42, 1-(3,4-Dihydroxy-2-nitro-phenyl)-2-morpholin-4-yl-ethanone] | – | – | – | – | – | 27 ± 1 % of control | 0.8 ± 0.2 % of control | 13 ± 0 % of control | – | – | – | – | – | – | – | –
O=C1c2c(cc(O)c(O)c2[N+](=O)[O-])CC1CN1CCN(c2cccc(C(F)(F)F)c2)CC1 (stereo not shown) [Compound 43, 5,6-Dihydroxy-7-nitro-2-[4-(3-trifluoromethyl-phenyl)-piperazin-1-ylmethyl]-indan-1-one] | – | – | – | – | – | 19 ± 7 % of control | 0.9 ± 0.2 % of control | 10 ± 1 % of control | – | – | – | – | – | – | – | –
O=C1c2c(cc(O)c(O)c2[N+](=O)[O-])CC1CN1CCN(c2ccccc2)CC1 (stereo not shown) [Compound 44, 5,6-Dihydroxy-7-nitro-2-(4-phenyl-piperazin-1-ylmethyl)-indan-1-one] | – | – | – | – | – | 9 ± 2 % of control | 0.6 ± 0.2 % of control | 10 ± 0 % of control | – | – | – | – | – | – | – | –
CC(=O)Oc1ccc(C(=O)Cc2ccccc2)c([N+](=O)[O-])c1OC(C)=O [Compound 45, Acetic acid, 6-acetoxy-2-nitro-3-phenylacetyl-phenyl ester] | – | – | – | – | – | 7 ± 3 % of control | 0.7 ± 0.2 % of control | 0 ± 0 % of control | – | – | – | – | – | – | – | –
CCCC(=O)Oc1ccc(C(=O)Cc2ccccc2)c([N+](=O)[O-])c1OC(=O)CCC [Compound 47, Butyric acid, 6-butyryloxy-2-nitro-3-phenylacetyl-phenyl ester] | – | – | – | – | – | 1 ± 1 % of control | 0.6 ± 0.2 % of control | 0 ± 0 % of control | – | – | – | – | – | – | – | –
CCOC(=O)Oc1ccc(C(=O)Cc2ccccc2)c([N+](=O)[O-])c1OC(=O)OCC [Compound 48, Carbonic acid, 2-ethoxycarbonyloxy-3-nitro-4-phenylacetyl-phenyl ester ethyl ester] | – | – | – | – | – | 7 ± 3 % of control | 0.5 ± 0.1 % of control | 0 ± 0 % of control | – | – | – | – | – | – | – | –
CC(=O)Oc1ccc(C(=O)CCCc2ccccc2)c([N+](=O)[O-])c1OC(C)=O [Compound 49, Acetic acid, 6-acetoxy-2-nitro-3-(4-phenyl-butyryl)-phenyl ester] | – | – | – | – | – | 1 ± 0 % of control | 1.4 ± 0.8 % of control | 0 ± 0 % of control | – | – | – | – | – | – | – | –
CCCC(=O)Oc1ccc(C(=O)CCCc2ccccc2)c([N+](=O)[O-])c1OC(C)=O [Compound 50, Acetic acid, 6-butyryloxy-2-nitro-3-(4-phenyl-butyryl)-phenyl ester] | – | – | – | – | – | 2 ± 1 % of control | 0.6 ± 0.5 % of control | 0 ± 0 % of control | – | – | – | – | – | – | – | –
CCOC(=O)Oc1ccc(C(=O)CCCc2ccccc2)c([N+](=O)[O-])c1OC(=O)OCC [Compound 51, Carbonic acid, 2-ethoxycarbonyloxy-3-nitro-4-(4-phenyl-butyryl)-phenyl ester ethyl ester] | – | – | – | – | – | 1 ± 0 % of control | 0.6 ± 0.3 % of control | 0 ± 0 % of control | – | – | – | – | – | – | – | –
